# B1: recombinant human Ang1 (rhAng1) (ligand, UniProt Q15389 16-498, looked up)
# chain: HIGCSNQRRSPENSGRRYNRIQHGQCAYTFILPEHDGNCRESTTDQYNTNALQRDAPHVEPDFSSQKLQHLEHVMENYTQWLQKLENYIVENMKSEMAQIQQNAVQNHTATMLEIGTSLLSQTAEQTRKLTDVETQVLNQTSRLEIQLLENSLSTYKLEKQLLQQTNEILKIHEKNSLLEHKILEMEGKHKEELDTLKEEKENLQGLVTRQTYIIQELEKQLNRATTNNSVLQKQQLELMDTVHNLVNLCTKEGVLLKGGKREEEKPFRDCADVYQAGFNKSGIYTIYINNMPEPKKVFCNMDVNGGGWTVIQHREDGSLDFQRGWKEYKMGFGNPSGEYWLGNEFIFAITSQRQYMLRIELMDWEGNRAYSQYDRFHIGNEKQNYRLYLKGHTGTAGKQSSLILHGADFSTKDADNDNCMCKCALMLTGGWWFDACGPSNLNGMFYTAGQNHGKLNGIKWHYFKGPSYSLRSTTMMIRPLDF
# notes: angiopoietin-1, human, recombinant; also called angiopoietin-1; source: bought: R&D Systems (named for the Boyden chamber experiments)
# Tests used:
# [1] = system: advanced metastatic breast cancer; conditions: ref Yardley et al, 2012; cited from earlier work
# Source text: Another possible explanation for the apparent insensitivity of MBC to TKI treatments is that the growth of secondary tumors post-metastatic colonization of the lung/liver may still be susceptible to the intended anti-angiogenic inhibition, but that these growth-inhibitory benefits may be diluted by concurrent unintended drug effects that promote tumor spread.
# [2] = system: advanced metastatic breast cancer; conditions: monotherapy or combined with chemotherapies; ref Ebos & Kerbel, 2011; Mackey et al, 2012; cited from earlier work
# Source text: These clinical results were recently replicated in a preclinical model of postsurgical advanced MBC (Guerin et al, [2013]). As discussed previously (Guerin et al, [2013]), primary and secondary tumors may have divergent responses to anti-angiogenic ...
# [3] = system: CMPTX-labeled tumor cells across HMVEC-DBl; assay: modified Boyden chamber, trans-endothelial tumor cell migration, HMVEC-DBl; format: cell-based, human; conditions: Fig1E
# Method: ECs were first treated with Vasculotide (VT), PBS (vehicle/negative control), Ang1 (positive control), PEG-Cys (polyethylene glycol backbone), T7c (non-PEGylated CHHHRHSF peptides), or VT in the presence of 100-fold molar excess of T7c. The concentrations used, 10–20 ng/mL VT and 200–400 ng/mL Ang1, are estimated molar equivalents (0.71–1.43 nM). Thirty minutes later, ECs were stimulated with thrombin, 0.1% BSA (vehicle/negative control), or EDTA (positive control). Another 30mins later, the amount of FITC-dextran diffusion into the lower chambers (A, D) provides a measure of endothelial permeability. CMTPX-labeled tumor cells (TCs) were then dispensed into inserts, and the amount of TC fluorescence emitting from the underside of insert membranes after 20 h (B–C) or 28 h (E) reflects the efficiency of trans-endothelial TC migration. […] Three experiments (twice with HMVEC-LBl and once with HMVEC-DBl) were run with n = 3–5 inserts (independent biological replicates) per group and analyzed by two-sampled unpaired t-tests. […]
# Endothelial cells (ECs) were grown on cell culture inserts with uncoated 8-μm-pore PET filter membranes to 100% confluency. […] After 30 min of thrombin stimulation or 4–6 h of TC-CM stimulation, FITC fluorescence (ex/em = 490/520 nm) was measured from a 50 μl sample of the lower chamber media. […]
# [4] = target: T1, mouse Tie2-Fc (Fc-conjugated extracellular domain of Tie2) (mouse, UniProt Q02858 23-746); assay: SPR
# T1 chain: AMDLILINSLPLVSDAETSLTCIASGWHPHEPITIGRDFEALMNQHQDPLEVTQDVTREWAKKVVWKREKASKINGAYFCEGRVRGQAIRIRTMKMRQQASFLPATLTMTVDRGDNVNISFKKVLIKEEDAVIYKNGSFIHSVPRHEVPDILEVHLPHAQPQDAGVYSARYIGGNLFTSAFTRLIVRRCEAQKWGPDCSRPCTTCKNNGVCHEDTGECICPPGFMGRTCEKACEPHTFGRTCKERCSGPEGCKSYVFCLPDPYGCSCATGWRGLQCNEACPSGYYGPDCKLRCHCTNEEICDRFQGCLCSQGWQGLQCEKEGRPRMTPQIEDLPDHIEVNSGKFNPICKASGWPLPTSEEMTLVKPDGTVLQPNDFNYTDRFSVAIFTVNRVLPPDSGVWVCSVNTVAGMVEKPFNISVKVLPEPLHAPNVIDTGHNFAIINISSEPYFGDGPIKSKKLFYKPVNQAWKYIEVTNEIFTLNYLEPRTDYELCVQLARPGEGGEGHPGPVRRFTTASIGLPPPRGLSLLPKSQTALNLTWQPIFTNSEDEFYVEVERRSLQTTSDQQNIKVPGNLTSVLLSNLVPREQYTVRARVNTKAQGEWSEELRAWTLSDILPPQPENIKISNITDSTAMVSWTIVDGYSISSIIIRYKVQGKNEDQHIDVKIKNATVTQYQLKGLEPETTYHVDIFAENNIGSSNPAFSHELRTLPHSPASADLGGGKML
molecule,measurement,setting,value
"CCN(CC)CCNC(=O)c1c(C)[nH]c(/C=C2\C(=O)Nc3ccc(F)cc32)c1C [sunitinib, reference compound]","response rate, distally disseminated visceral metastatic disease",[1],9%
same,"response rate, locoregionally growing superficial metastatic disease",[1],20%
same,phase III clinical trial outcome,[2],repeatedly failed in multiple phase III clinical trials
"CHHHRHSF [Vasculotide, 4-armed maleimide-functionalized polyethylene glycol (PEG) backbone to link together four cysteine-capped T7 peptides, that is, CHHHRHSF]",thrombin-stimulated migration of CMTPX-labeled TCs,[3]; 28 h,trends of reducing thrombin-stimulated migration
same,TC migration effect of VT in presence of 100-fold molar excess of T7c,[3],dampened the effects of VT
B1,Kd,[4],0.237 nM

# From publication PMC4459817, “Vasculotide reduces endothelial permeability and tumor cell extravasation in the absence of binding to or agonistic activation of Tie2” (EMBO Molecular Medicine, 2015)
